Assay [1] concerns OPM-2 human multiple myeloma cell line. As to the kind of experiment: Cell Viability Assay (OPM-2 10 FBS). It is filed as cell-based. The settings on record: OPM-2 cells, CellTiter-Glo. In a few lines: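 IC50 from 4-parameter logistic fit of CellTiter-Glo luminescence. 3000 cells/well, 10% FBS medium, serial compound dilutions, 16 h, 37 °C/5% CO2; read 25 min post-reagent.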
On the technique in general: In ATP-based viability assays light output follows the ATP content of the culture.

For assay [2], the target named is T1, Mcl-1/Bim interaction, recombinant human Mcl-1 (171-327) (Homo sapiens, UniProt Q07820).
T1 construct: made in house
T1 sequence (Q07820 171-327): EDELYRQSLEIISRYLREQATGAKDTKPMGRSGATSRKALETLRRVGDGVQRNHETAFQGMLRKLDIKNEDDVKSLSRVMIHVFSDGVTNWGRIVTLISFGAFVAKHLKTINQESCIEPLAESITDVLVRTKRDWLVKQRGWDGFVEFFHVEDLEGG
The experiment in a line: Cell free Mcl-1: Bim Affinity Assay (Mcl-1 HTRF). Format: binding. In a few lines:
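TR-FRET competition assay with biotinylated human Bim peptide (residues 51-76); reaction plates incubated overnight before reading. IC50 values came from duplicate data fitted to a four-parameter sigmoidal competition curve.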
A general note: In TR-FRET formats the signal depends on donor and acceptor labels being close together.

[3] abbreviates: Homo sapiens, OPM-2, 16 h, 16 h.
[4] abbreviates: cell free Mcl-1:Bim TR-FRET, recombinant human Mcl-1 (171-327).
The mark [5] stands for this setting: TR-FRET, 0.1 nM Mcl-1 (171-327), 0.05 nM biotin-Bim (51-76).

As to `CC1CC=CC(O)C2CCC2CN2CC3(CCCc4cc(Cl)ccc43)COc3ccc(cc32)C(=O)NS(=O)(=O)N1Cc1ccccn1` (single isomer, unassigned) [Example 668], the IC50 in assay [1] (setting [3]) is 11600 nM; in assay [2] (setting [4]), 17 nM.

In the case of `CO[C@H]1C[C@@H](N2[C@@H](C)C/C=C\[C@H](O)[C@@H]3CC[C@H]3CN3C[C@@]4(CCCc5cc(Cl)ccc54)COc4ccc(cc43)C(=O)NS2(=O)=O)C1` [Example 78, (1S,3′R,6′R,7′S,8′Z,11′S)-6-chloro-7′-hydroxy-12′-(cis-3-methoxycyclobutyl)-11′-methyl-3,4-dihydro-2H,15′H-spiro[naphthalene-1,22′-[20]oxa[13]thia[1,12,14]triazatetracyclo[14.7.2.0^3,6.0^19,24]pentacosa[8,16,18,24]tetraen]-15′-one 13′,13′-dioxide], the half-inhibitory concentration (IC50) in assay [1] (setting [3]) is 587 nM; in assay [2] (setting [5]) it was 1.45 nM.

For the compound `C[C@@H]1[C@@H](C)C/C=C/[C@H](OCC(=O)N2CCC(O)CC2)[C@@H]2CC[C@H]2CN2C[C@@]3(CCCc4cc(Cl)ccc43)COc3ccc(cc32)C(=O)NS1(=O)=O` [Example 312, (1S,3′R,6′R,7′S,8′E,11′S,12′R)-6-chloro-7′-(2-(4-hydroxy-1-piperidinyl)-2-oxoethoxy)-11′,12′-dimethyl-3,4-dihydro-2H,15′H-spiro[naphthalene-1,22′-[20]oxa[13]thia[1,14]diazatetracyclo[14.7.2.0^3,6.0^19,24]pentacosa [8,16,18,24]tetraen]-15′-one 13′,13′-dioxide], the results for the IC50 in assay [1] (setting [3]) and in assay [2] (setting [5]) were 1000 nM and 0.153 nM, respectively.

For `CC(C)(O)CC1CCC=CC(O)C2CCC2CN2CC3(CCCc4cc(Cl)ccc43)COc3ccc(cc32)C(=O)NS1(=O)=O` (single isomer, unassigned) [Example 558], the concentration for half-maximal inhibition (IC50) in assay [1] (setting [3]) was 891 nM; in assay [2] (setting [4]), 0.284 nM.

For `CCC(OC1C=CCCC(C)S(=O)(=O)NC(=O)c2ccc3c(c2)N(CC2CCC21)CC1(CCCc2cc(Cl)ccc21)CO3)C(=O)N(C)C` (single isomer, unassigned) [Example 419], the IC50 was 310 nM in assay [1] (setting [3]) and 0.333 nM in assay [2] (setting [5]).

For `CC1CCCS(=O)(=O)NC(=O)c2ccc3c(c2)N(CC2CCC2C(O)C1)CC1(CCCc2cc(Cl)ccc21)CO3` (single isomer, unassigned) [Example 240], the IC50 in assay [1] (setting [3]) amounted to 3730 nM; in assay [2] (setting [5]) it was 2.54 nM.

Turning to `O=C1NS(=O)(=O)NCC/C=C\[C@H](O)[C@@H]2CC[C@H]2CN2C[C@@]3(CCCc4cc(Cl)ccc43)COc3ccc1cc32` [Example 36, (1S,3′R,6′R,7′S,8′Z)-6-chloro-7′-hydroxy-3,4-dihydro-2H,15′H-spiro[naphthalene-1,22′-[20]oxa[13]thia[1,12,14]triazatetracyclo[14.7.2.0^3,6.0^19,24]pentacosa[8,16,18,24]tetraen]-15′-one 13′,13′-dioxide], the 50% inhibitory concentration (IC50) turned out to be 2590 nM in assay [1] (setting [3]) and 0.535 nM in assay [2] (setting [5]).

Turning to `C[C@@H]1[C@@H](C)C/C=C/[C@H](OCCBr)[C@@H]2CC[C@H]2CN2C[C@@]3(CCCc4cc(Cl)ccc43)COc3ccc(cc32)C(=O)NS1(=O)=O` [Example 14, (1S,3′R,6′R,7′S,8′E,11′S,12′R)-7′-(2-bromoethoxy)-6-chloro-11′,12′-dimethyl-3,4-dihydro-2H,15′H-spiro[naphthalene-1,22′-[20]oxa[13]thia[1,14]diazatetracyclo[14.7.2.0^3,6.0^19,24]pentacosa[8,16,18,24]tetraen]-15′-one 13′,13′-dioxide], the 50% inhibitory concentration (IC50) in assay [1] (setting [3]) was found to be 1100 nM; in assay [2] (setting [5]), 3.92 nM.

As for `CCN1CC/C=C/[C@H](OCc2cscn2)[C@@H]2CC[C@H]2CN2C[C@@]3(CCCc4cc(Cl)ccc43)COc3ccc(cc32)C(=O)NS1(=O)=O` [Example 88, (1S,3′R,6′R,7′S,8′E)-6-chloro-12′-ethyl-7′-(1,3-thiazol-4-ylmethoxy)-3,4-dihydro-2H,15′H-spiro[naphthalene-1,22′-[20]oxa[13]thia[1,12,14]triazatetracyclo[14.7.2.0^3,6.0^19,24]pentacosa[8,16,18,24]tetraen]-15′-one 13′,13′-dioxide], the IC50 in assay [1] (setting [3]) came to 1040 nM; in assay [2] (setting [5]), 1.71 nM.

For `COCCOCCOCCOCCO[C@H]1/C=C/C[C@H](C)[C@@H](C)S(=O)(=O)NC(=O)c2ccc3c(c2)N(C[C@@H]2CC[C@H]21)C[C@@]1(CCCc2cc(Cl)ccc21)CO3` [Example 379, (1S,3′R,6′R,7′S,8′E,11′S,12′R)-6-chloro-11′,12′-dimethyl-7′-(3,6,9,12-tetraoxatridec-1-yloxy)-3,4-dihydro-2H,15′H-spiro[naphthalene-1,22′-[20]oxa[13]thia[1,14]diazatetracyclo[14.7.2.0^3,6.0^19,24]pentacosa[8,16,18,24]tetraen]-15′-one 13′,13′-dioxide], the half-maximal inhibitory concentration (IC50) was determined as 128 nM in assay [1] (setting [3]) and 0.211 nM in assay [2] (setting [5]).

In the case of `CO[C@H]1/C=C/C[C@H]2CC[C@@H]2S(=O)(=O)NC(=O)c2ccc3c(c2)N(C[C@@H]2CC[C@H]21)C[C@@]1(CCCc2cc(Cl)ccc21)CO3` [Example 95, (1S,3′R,6′R,7′S,8′E,11′R,14′S)-6-chloro-7′-methoxy-3,4-dihydro-2H,17′H-spiro[naphthalene-1,24′-[22]oxa[15]thia[1,16]diazapentacyclo[16.7.2.0^3,6.0^11,14.0^21,26]heptacosa[8,18,20,26]tetraen]-17′-one 15′,15′-dioxide], the 50% inhibitory concentration (IC50) in assay [1] (setting [3]) was found to be 572 nM; in assay [2] (setting [5]), 0.46 nM.

Turning to `O=C1NS(=O)(=O)N(Cc2ncco2)CC/C=C/[C@H](O)[C@@H]2CC[C@H]2CN2C[C@@]3(CCCc4cc(Cl)ccc43)COc3ccc1cc32` [Example 694, (1S,3′R,6′R,7′S,8′E)-6-chloro-7′-hydroxy-12′-(1,3-oxazol-2-ylmethyl)-3,4-dihydro-2H,15′H-spiro[naphthalene-1,22′-[20]oxa[13]thia[1,12,14]triazatetracyclo[14.7.2.0^3,6.0^19,24]pentacosa[8,16,18,24]tetraen]-15′-one 13′,13′-dioxide], the IC50 came to 968 nM in assay [1] (setting [3]) and 0.763 nM in assay [2] (setting [4]).

As for `CC(=O)N1CCN(CCO[C@H]2/C=C/C[C@H](C)[C@@H](C)S(=O)(=O)NC(=O)c3ccc4c(c3)N(C[C@@H]3CC[C@H]32)C[C@@]2(CCCc3cc(Cl)ccc32)CO4)CC1` [Example 733, (1S,3′R,6′R,7′S,8′E,11′S,12′R)-7′-(2-(4-acetyl-1-piperazinyl)ethoxy)-6-chloro-11′,12′-dimethyl-3,4-dihydro-2H,15′H-spiro[naphthalene-1,22′-[20]oxa[13]thia[1,14]diazatetracyclo [14.7.2.0^3,6.0^19,24]pentacosa[8,16,18,24]tetraen]-15′-one-13′, 13′-dioxide], the half-inhibitory concentration (IC50) in assay [1] (setting [3]) worked out at 69.7 nM; in assay [2] (setting [4]), 0.284 nM.

Take `C[C@H]1C/C=C/[C@H](O)[C@@H]2CC[C@H]2CN2C[C@@]3(CCCc4cc(Cl)ccc43)COc3ccc(cc32)C(=O)NS(=O)(=O)N1C[C@H]1CCCO1` (single isomer, unassigned) [Example 53]: the 50% inhibitory concentration (IC50) in assay [1] (setting [3]) was found to be 486 nM; in assay [2] (setting [5]) it was 0.79 nM.

Regarding `CO[C@H]1C/C=C/[C@H](O)[C@@H]2CC[C@H]2CN2C[C@@]3(CCCc4cc(Cl)ccc43)COc3ccc(cc32)C(=O)NS(=O)(=O)[C@@H]1CC1CC1` (single isomer, unassigned) [Example 575], the results for the IC50 in assay [1] (16 h) and in assay [2] (setting [4]) were 2070 nM and 3.21 nM, respectively.

As to `CO[C@H](C)CC1[C@@H](C)C/C=C/[C@H](O)[C@@H]2CC[C@H]2CN2C[C@@]3(CCCc4cc(Cl)ccc43)COc3ccc(cc32)C(=O)NS1(=O)=O` (single isomer, unassigned) [Example 529], the IC50 in assay [1] (16 h) is 754 nM; in assay [2] (setting [4]), 0.97 nM.

On to `C[C@@H]1CC/C=C/[C@H](O)[C@@H]2CC[C@H]2CN2C[C@@]3(CCC(F)(F)c4cc(Cl)ccc43)COc3ccc(cc32)C(=O)NS1(=O)=O` [Example 8, (1S,3′R,6′R,7′S,8′E,12′R)-6-chloro-4,4-difluoro-7′-hydroxy-12′-methyl-3,4-dihydro-2H,15′H-spiro[naphthalene-1,22′-[20]oxa[13]thia[1,14]diazatetracyclo[14.7.2.0^3,6.0^19,24]pentacosa [8,16,18,24]tetraen]-15′-one 13′,13′-dioxide], for which the IC50 in assay [1] (setting [3]) was found to be 1460 nM; in assay [2] (setting [5]), 0.564 nM.

Take `CC[C@@H]1C[C@H](C)/C=C/[C@H](OCCN2CCOCC2)[C@@H]2CC[C@H]2CN2C[C@@]3(CCCc4cc(Cl)ccc43)COc3ccc(cc32)C(=O)NS1(=O)=O` (single isomer, unassigned) [Example 1027]: the IC50 in assay [1] (16 h incubation) amounted to 218 nM; in assay [2] (setting [5]), 0.945 nM.

For the compound `O=C1NS(=O)(=O)[C@H](c2ccccn2)CC/C=C/[C@H](O)[C@@H]2CC[C@H]2CN2C[C@@]3(CCCc4cc(Cl)ccc43)COc3ccc1cc32` (single isomer, unassigned) [Example 693], the results for the IC50 in assay [1] (16 h) and in assay [2] (setting [4]) were 742 nM and 0.235 nM, respectively.

Take `COC[C@@H](O)C[C@@H]1[C@@H](C)C/C=C/[C@H](O)[C@@H]2CC[C@H]2CN2C[C@@]3(CCCc4cc(Cl)ccc43)COc3ccc(cc32)C(=O)NS1(=O)=O` (single isomer, unassigned) [Example 673]: the IC50 in assay [1] (16 h) is 445 nM; in assay [2] (setting [4]), 0.183 nM.

On to `C[C@@H]1/C=C/[C@H](O)[C@@H]2CC[C@H]2CN2C[C@@]3(CCCc4cc(Cl)ccc43)COc3ccc(cc32)C(=O)NS(=O)(=O)[C@H](C)C1` [Example 1015, (1S,3′R,6′R,7′S,8′E,10′S,12′R)-6-chloro-7′-hydroxy-10′,12′-dimethyl-3,4-dihydro-2H,15′H-spiro[naphthalene-1,22′-[20]oxa[13]thia[1,14]diazatetracyclo[14.7.2.0^3,6.0^19,24]pentacosa [8,16,18,24]tetraen]-15′-one 13′,13′-dioxide], for which the IC50 in assay [1] (Homo sapiens, OPM-2, 16 h, 16 h incubation) turned out to be 235 nM; in assay [2] (setting [5]) it was 0.275 nM.

As a reminder, the IC50 is the concentration that gives 50% inhibition.
